Calls of active or inactive are those of the source.
Tests used:
[1] = biological target: Genome polyprotein (dengue virus type 2, UniProt P29990); assay: Dengue-2 NS5 methyltransferase inhibitors, primary screen, biochemical, confirmation dose response (AID 588689); type: functional
[2] = biological target: T1, Protein skinhead-1 (Caenorhabditis elegans, UniProt P34707); type: functional
T1 sequence (P34707 whole entry): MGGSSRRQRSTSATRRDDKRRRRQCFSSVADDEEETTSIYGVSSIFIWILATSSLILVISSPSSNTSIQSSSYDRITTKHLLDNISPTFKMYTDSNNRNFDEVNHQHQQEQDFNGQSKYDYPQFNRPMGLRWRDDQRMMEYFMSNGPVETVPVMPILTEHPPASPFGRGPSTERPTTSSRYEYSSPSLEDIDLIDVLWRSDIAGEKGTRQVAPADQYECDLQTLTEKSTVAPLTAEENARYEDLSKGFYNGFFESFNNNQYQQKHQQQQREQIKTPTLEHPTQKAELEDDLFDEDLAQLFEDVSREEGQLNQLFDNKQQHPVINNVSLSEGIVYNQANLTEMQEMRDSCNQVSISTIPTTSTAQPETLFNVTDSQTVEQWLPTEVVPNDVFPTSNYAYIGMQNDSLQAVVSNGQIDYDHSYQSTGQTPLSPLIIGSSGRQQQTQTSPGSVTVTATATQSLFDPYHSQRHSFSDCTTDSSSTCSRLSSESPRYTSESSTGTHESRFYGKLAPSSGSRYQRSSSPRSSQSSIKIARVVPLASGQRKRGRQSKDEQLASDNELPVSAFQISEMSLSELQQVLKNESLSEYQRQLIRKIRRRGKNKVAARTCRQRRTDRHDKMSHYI

[3] = biological target: Cytochrome P450 3A4 (Homo sapiens, UniProt P08684);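 note: CYP3A4 tested as one member of a cytochrome P450 panel screen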
[4] = biological target: Cytochrome P450 2D6 (Homo sapiens, UniProt P10635);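 note: CYP2D6 member of a cytochrome P450 panel assay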
Sequence of Cytochrome P450 2D6 (P10635 whole entry): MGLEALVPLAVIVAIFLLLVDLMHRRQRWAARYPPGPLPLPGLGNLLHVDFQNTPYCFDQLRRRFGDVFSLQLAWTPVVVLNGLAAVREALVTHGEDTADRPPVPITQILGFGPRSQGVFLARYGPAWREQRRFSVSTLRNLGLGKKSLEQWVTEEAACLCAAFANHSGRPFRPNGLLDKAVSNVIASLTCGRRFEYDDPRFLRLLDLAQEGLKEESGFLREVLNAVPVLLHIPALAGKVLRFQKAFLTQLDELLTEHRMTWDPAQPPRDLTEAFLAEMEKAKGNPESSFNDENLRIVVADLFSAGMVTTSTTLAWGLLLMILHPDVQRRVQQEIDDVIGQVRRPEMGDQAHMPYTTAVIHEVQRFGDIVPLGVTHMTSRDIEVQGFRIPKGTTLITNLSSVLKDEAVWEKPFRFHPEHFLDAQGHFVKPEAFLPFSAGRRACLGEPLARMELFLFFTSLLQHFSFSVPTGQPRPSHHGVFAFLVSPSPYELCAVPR

[5] = biological target: Cytochrome P450 2C9 (Homo sapiens, UniProt P11712)
Sequence of Cytochrome P450 2C9 (P11712 whole entry): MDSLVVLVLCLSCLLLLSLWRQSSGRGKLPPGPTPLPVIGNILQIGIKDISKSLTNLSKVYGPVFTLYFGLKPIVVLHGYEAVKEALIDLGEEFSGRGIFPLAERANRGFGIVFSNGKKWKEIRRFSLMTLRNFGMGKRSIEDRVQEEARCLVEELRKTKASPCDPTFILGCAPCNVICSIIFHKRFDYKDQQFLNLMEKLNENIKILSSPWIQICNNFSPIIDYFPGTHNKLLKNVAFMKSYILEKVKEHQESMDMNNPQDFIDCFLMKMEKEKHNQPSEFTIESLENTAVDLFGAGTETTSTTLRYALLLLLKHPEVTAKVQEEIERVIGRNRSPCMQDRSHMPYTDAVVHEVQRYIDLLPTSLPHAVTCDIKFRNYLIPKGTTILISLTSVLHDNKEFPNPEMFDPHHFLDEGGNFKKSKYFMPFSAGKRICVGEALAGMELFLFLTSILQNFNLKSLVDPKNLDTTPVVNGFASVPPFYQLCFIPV

[6] = test system: Vero; assay: cells; type: functional; conditions: Chlorocebus sabaeus
[7] = HEp-2 cell cytotoxicity, dose response, cytotoxicity control for RSV inhibitor project, HTS (AID 2410); type: functional; conditions: human respiratory syncytial virus
[8] = cytotoxicity toward NIH3T3 fibroblasts, dose response, counter-screen, cell-based, ATP luminescence, mouse fibroblasts (AID 2010); type: functional;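 note: cells exposed to compound for about 90 hours before reading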
[9] = inhibitors of intracellular T. cruzi replication, confirmation, NIH3T3 host cells, beta-gal luminescence (AID 2044); type: functional, cell-based;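 note: intracellular parasites grown in NIH/3T3 mouse fibroblasts as host cells; luminescent beta-galactosidase reporter signal from transgenic T. cruzi replicating inside host cells; inhibitors lower the luminescence signal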
[10] = biological target: T2, Cytochrome P450 1A2 (Homo sapiens, UniProt P05177);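 note: PubChem cytochrome P450 panel assay, CYP1A2 panel member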
T2 sequence (P05177 whole entry): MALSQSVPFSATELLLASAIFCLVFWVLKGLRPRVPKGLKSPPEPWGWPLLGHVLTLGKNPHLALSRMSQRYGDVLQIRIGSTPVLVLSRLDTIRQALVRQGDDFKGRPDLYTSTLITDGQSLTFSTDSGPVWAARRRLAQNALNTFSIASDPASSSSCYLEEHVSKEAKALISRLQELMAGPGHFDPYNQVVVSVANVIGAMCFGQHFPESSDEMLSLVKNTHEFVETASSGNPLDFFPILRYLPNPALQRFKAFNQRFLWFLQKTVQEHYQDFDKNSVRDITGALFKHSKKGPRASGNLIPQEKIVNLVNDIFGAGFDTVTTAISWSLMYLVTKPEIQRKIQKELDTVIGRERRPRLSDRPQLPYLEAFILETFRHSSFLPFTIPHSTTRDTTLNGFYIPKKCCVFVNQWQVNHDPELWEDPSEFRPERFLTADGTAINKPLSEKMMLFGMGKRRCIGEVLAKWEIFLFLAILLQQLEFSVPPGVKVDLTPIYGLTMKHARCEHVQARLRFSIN

[11] = biological target: Cytochrome P450 2C19 (Homo sapiens, UniProt P33261); assay: Cytochrome panel assay with activity outcomes. Panel member name: p450-cyp2c19 Compounds with AC50 equal or less than 10 uM are considered active; type: functional; conditions: read-out: AC50
Sequence of Cytochrome P450 2C19 (P33261 whole entry): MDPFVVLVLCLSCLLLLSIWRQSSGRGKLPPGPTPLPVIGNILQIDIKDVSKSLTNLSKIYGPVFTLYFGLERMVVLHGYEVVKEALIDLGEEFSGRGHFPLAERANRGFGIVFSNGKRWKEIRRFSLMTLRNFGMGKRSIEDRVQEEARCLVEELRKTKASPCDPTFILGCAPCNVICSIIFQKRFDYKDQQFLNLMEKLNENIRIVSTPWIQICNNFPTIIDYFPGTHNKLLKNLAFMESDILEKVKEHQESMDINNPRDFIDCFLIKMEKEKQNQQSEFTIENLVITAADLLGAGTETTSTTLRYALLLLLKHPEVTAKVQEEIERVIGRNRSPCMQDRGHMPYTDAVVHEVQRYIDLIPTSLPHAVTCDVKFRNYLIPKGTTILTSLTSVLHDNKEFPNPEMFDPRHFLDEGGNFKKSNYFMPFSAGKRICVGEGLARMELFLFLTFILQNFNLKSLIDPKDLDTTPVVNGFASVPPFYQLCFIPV

[12] = biological target: T3, Protein RecA (Mycobacterium tuberculosis, UniProt P9WHJ3); assay: Fluorescence Cell-Free Homogeneous Dose Retest to Identify Inhibitors of RecA-Intein Splicing Activity. [Related pubchem assays (depositor defined):AID2097, AID2223, AID489010, AID492950]; type: functional
T3 sequence (P9WHJ3 whole entry): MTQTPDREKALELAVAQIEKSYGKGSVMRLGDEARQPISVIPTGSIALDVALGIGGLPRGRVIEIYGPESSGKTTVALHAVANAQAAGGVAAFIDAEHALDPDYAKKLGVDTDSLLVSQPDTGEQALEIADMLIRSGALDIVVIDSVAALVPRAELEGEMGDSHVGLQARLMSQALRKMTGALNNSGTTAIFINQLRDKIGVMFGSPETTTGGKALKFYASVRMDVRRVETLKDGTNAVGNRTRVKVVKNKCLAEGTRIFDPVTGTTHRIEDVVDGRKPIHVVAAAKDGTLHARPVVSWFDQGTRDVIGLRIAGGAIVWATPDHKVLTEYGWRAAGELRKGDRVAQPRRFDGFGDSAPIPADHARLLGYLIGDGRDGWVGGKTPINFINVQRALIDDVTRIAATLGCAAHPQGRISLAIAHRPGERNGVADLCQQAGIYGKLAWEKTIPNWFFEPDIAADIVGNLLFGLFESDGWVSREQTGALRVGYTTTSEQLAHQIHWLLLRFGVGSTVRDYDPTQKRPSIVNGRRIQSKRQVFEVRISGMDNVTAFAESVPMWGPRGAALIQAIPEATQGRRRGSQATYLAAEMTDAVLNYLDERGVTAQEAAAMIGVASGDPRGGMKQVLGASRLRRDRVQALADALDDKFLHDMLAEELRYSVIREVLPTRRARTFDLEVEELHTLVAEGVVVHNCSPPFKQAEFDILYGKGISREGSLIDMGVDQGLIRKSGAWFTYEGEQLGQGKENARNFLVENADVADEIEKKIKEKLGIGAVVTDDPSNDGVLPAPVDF

[13] = biological target: T4, Replicative DNA helicase DnaB (Mycobacterium tuberculosis, UniProt P9WMR3); assay: DnaB intein splicing inhibitors, dose response, biochemical, cell-free fluorescence (AID 449749); type: functional
T4 sequence (P9WMR3 whole entry): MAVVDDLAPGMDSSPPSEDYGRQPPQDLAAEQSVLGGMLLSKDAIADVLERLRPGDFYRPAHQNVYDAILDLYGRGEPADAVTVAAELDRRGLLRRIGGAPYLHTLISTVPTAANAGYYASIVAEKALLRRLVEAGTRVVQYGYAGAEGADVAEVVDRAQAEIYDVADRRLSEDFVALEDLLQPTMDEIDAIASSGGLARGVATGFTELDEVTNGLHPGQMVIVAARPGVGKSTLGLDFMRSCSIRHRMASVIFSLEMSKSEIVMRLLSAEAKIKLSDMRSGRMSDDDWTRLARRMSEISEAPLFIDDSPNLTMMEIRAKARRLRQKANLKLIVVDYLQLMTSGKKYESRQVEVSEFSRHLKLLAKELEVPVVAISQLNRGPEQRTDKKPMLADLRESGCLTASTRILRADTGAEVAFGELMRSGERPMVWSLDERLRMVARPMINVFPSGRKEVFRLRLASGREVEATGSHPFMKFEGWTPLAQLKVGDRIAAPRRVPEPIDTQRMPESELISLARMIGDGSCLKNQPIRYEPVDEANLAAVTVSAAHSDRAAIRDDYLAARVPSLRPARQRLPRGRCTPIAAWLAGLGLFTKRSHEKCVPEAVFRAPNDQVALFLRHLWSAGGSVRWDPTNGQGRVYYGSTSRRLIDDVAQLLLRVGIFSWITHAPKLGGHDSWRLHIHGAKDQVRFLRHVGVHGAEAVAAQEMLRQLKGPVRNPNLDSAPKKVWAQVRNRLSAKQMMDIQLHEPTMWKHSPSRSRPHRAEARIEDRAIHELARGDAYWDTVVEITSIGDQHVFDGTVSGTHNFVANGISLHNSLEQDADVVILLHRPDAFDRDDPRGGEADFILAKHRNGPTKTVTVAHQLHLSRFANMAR

[14] = biological target: T5, Rac GTPase-activating protein 1 (Homo sapiens, UniProt Q9H0H5); assay: MgcRacGAP GTPase-activating activity inhibitors, confirmation, biochemical, ADP Hunter fluorescence, primary and confirmatory (AID 624330); type: functional
T5 sequence (Q9H0H5 whole entry): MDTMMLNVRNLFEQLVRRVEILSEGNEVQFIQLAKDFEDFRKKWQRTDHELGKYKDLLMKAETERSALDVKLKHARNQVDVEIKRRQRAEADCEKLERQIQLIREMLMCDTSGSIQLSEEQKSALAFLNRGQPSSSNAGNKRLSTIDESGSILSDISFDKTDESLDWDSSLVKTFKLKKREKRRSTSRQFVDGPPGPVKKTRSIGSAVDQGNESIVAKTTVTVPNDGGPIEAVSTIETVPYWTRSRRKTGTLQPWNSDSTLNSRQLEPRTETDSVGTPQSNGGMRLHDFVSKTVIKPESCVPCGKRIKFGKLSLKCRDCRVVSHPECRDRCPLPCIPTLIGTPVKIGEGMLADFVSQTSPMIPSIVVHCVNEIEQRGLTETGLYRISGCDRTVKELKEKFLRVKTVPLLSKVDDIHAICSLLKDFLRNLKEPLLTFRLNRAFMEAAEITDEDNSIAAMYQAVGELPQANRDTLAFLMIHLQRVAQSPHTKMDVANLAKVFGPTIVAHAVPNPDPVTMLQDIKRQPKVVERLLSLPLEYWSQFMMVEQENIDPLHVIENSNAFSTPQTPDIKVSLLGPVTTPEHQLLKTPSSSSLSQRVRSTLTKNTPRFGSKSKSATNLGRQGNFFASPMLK

[15] = biological target: T6, Fatty acid synthase (Homo sapiens, UniProt P49327); assay: FAS thioesterase domain inhibitors, dose response, biochemical, endpoint fluorescence intensity, uHTS hits (AID 624327); type: functional;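 note: fluorescence from hydrolysis of an O-methyl fluorescein acyl ester substrate by the enzyme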
T6 sequence (P49327 whole entry, the tested form may be a part): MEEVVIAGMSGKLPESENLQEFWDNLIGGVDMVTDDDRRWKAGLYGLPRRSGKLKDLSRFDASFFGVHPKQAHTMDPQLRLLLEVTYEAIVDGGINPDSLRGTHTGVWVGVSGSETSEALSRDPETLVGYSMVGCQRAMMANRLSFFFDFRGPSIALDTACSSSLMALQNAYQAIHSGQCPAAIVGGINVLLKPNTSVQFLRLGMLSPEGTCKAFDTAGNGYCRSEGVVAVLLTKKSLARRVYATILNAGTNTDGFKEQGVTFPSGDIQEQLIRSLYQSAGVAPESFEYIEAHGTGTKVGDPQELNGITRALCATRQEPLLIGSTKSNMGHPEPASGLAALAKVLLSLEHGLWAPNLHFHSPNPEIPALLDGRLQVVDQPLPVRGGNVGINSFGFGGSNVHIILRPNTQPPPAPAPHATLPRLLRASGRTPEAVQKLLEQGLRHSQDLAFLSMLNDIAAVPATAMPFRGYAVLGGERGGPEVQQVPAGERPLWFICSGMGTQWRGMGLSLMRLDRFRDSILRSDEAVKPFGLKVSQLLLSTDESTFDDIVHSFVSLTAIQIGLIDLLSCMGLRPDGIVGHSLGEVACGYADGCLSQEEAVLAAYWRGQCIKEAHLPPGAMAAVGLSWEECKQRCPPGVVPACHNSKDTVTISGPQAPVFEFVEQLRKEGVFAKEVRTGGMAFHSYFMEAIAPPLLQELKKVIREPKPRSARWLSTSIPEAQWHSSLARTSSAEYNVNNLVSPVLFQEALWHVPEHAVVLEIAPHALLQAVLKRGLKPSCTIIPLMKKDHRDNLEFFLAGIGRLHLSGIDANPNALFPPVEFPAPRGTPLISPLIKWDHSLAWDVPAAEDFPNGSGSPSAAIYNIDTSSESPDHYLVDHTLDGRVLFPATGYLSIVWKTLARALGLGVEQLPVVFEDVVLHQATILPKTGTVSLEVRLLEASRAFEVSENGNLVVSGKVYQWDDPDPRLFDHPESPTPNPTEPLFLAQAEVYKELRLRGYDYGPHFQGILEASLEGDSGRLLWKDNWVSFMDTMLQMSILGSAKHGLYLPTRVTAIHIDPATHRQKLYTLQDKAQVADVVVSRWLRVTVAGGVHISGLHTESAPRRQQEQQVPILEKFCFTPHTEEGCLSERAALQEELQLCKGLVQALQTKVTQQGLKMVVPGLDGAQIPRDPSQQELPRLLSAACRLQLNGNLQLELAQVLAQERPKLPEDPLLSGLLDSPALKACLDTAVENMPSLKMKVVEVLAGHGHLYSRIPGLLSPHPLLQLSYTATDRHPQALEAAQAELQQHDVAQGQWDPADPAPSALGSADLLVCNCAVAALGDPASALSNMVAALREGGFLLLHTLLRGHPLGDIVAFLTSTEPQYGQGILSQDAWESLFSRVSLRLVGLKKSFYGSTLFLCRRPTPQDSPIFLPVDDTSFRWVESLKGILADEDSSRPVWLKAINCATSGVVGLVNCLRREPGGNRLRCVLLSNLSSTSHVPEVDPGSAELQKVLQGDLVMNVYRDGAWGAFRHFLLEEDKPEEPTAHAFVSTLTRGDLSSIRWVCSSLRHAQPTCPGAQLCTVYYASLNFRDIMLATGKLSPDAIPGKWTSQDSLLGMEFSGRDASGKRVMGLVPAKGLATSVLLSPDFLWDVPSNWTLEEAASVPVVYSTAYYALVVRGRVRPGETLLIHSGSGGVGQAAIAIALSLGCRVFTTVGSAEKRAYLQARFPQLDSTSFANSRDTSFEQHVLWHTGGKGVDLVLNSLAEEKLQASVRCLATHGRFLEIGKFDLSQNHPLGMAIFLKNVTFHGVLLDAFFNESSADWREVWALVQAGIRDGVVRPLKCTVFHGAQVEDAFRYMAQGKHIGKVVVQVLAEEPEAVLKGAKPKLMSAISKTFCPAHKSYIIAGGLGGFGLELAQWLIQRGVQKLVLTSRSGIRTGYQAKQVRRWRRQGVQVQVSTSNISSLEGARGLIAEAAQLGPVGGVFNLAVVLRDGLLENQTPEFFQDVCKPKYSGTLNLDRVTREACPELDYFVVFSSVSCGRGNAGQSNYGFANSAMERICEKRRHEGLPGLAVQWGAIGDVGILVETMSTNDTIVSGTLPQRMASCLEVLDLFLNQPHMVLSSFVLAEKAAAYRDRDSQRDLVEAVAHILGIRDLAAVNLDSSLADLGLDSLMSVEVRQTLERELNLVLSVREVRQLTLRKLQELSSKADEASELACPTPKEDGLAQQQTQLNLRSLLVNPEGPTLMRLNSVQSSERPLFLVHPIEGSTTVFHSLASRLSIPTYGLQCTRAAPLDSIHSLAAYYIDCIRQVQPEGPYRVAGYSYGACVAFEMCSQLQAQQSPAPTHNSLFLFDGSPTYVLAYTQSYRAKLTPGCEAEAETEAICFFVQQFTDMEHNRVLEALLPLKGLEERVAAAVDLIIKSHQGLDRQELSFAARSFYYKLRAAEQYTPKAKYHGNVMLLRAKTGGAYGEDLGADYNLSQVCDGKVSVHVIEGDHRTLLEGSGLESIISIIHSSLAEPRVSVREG

[16] = biological target: T6, Fatty acid synthase; assay: FAS thioesterase domain inhibitors, dose response, biochemical, kinetic fluorescence intensity (AID 624326); type: functional;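 note: rate of fluorescence rise from hydrolysis of a fluorogenic O-methyl fluorescein ester substrate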
[17] = test system: BJ; assay: cells; type: functional, cell-based, Homo sapiens; conditions: bj

Sequence of Genome polyprotein (P29990 2492-3391 limits assumed): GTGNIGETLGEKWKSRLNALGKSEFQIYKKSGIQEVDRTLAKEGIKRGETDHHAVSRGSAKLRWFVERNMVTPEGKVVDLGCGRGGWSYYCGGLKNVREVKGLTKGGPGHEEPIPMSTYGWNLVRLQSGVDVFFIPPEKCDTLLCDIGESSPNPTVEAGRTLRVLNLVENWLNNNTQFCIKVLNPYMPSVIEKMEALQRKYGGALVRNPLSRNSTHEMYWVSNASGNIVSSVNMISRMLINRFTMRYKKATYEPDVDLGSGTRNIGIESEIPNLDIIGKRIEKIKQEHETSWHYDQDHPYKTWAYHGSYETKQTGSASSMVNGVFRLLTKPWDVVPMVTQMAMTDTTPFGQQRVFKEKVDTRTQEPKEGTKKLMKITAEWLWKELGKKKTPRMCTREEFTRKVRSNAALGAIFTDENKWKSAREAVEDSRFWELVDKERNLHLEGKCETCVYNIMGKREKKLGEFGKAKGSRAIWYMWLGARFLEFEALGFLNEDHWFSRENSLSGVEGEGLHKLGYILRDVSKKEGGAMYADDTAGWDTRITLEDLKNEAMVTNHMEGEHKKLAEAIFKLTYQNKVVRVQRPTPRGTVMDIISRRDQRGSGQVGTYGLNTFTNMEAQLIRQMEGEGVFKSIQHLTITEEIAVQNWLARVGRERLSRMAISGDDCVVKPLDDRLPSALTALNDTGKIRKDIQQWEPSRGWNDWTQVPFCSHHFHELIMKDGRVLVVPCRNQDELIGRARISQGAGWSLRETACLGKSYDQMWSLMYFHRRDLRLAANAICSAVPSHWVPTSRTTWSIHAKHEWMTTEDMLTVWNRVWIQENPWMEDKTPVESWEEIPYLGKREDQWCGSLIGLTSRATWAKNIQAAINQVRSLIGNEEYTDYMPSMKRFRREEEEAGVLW

## CC(=C\c1ccccc1)/C=C1/SC(=S)N(C(C(=O)O)C(C)C)C1=O (stereo not given)
[1]
  IC50: 34.1 µM (active)

## COc1ccc(N2CCN(C(=O)c3cc4c(-c5cccc(OC)c5)nn(C)c4s3)CC2)cc1
[2]
  IC50: > 100 µM (inactive)

## CCCCn1nnnc1SCC(=O)c1cc(Cl)ccc1OC
[3]
  AC50: 14.1 µM (inconclusive)
[4]
  AC50: 22.4 µM (inconclusive)
[5]
  AC50: inconclusive

## CNC[C@H](CC1CCCCC1)NC[C@H](NCCC1CCCC1)[C@H](C)O
[6]
  CC50: > 25 µM (active)

## CCOC(=O)C(Oc1ccc2c(-c3ccc(OC)cc3)cc(=O)oc2c1C)c1ccccc1 (stereo not given)
[2]
  IC50: > 100 µM (inactive)

## CC(=O)Nc1ccc(S(=O)(=O)Nc2cccc(-c3nc4cc(C)ccc4o3)c2)cc1
[6]
  CC50: > 25 µM (active)
[7]
  CC50: 9.33 µM (active)

## Fc1ccc(CSc2nnc(-c3cccs3)o2)cc1
[2]
  IC50: 27.3 µM (active)

## CC1=C(C(=O)Nc2ccccc2F)C(c2ccsc2)C2=C(O)CC(c3ccccc3)CC2=N1 (stereo not given)
[8]
  EC50: 8.96 µM (active)
[9]
  EC50: 3.32 µM (active)
[10]
  AC50: 11.2 µM (inconclusive)
[5]
  AC50: inconclusive

## CCCSc1nc(C)cc(C)c1S(=O)(=O)c1ccccc1C
[4]
  AC50: 39.8 µM (inconclusive)
[10]
  AC50: 11.2 µM (inconclusive)
[5]
  AC50: inconclusive

## CCOC(=O)c1ccc(CNC(=O)C2CCCCC2C(=O)OCC(F)(F)F)o1 (stereo not given)
[4]
  AC50: 25.1 µM (inconclusive)
[11]
  AC50: 39.8 µM (inconclusive)
[5]
  AC50: inconclusive

## O=C1NC(=O)C(=Cc2ccccc2Oc2ccc(F)cc2)C(=O)N1
[1]
  IC50: 37.5 µM (active)

## Cc1ccc(-c2nc(-c3ccncc3)no2)cc1
[2]
  IC50: 13.9 µM (active)

## Cc1ccc(N2C(=O)NC(=O)/C(=C/c3ccc(OC(=O)c4cccs4)cc3)C2=O)cc1
[12]
  EC50: 0.772 µM (active)
[13]
  AC50: 0.64 µM (active)
[1]
  IC50: 55.4 µM (active)

## Cc1cc(N(CCCl)CCCl)ccc1C=Cc1ccncn1
[2]
  IC50: > 100 µM (inactive)

## CCOc1cc2c(cc1O)C(=NO)CC1C2CCC2(C)C(O)CCC12 (stereo not given)
[6]
  CC50: 4.99 µM (active)

## COc1ccccc1-c1nnc(-c2ccc(F)cc2)o1
[2]
  IC50: 90.4 µM (inactive)

## Cc1ccc(CNC(=O)CN2C(=O)COc3ccc(C)cc32)cc1
[4]
  AC50: 28.2 µM (inconclusive)
[5]
  AC50: inconclusive

## O=C(CS(=O)(=O)c1cccc(Cl)c1)Nc1ccccc1Cl
[4]
  AC50: 17.8 µM (inconclusive)
[10]
  AC50: 22.4 µM (inconclusive)
[5]
  AC50: inconclusive

## O=C1NN(c2ccccc2)C(=O)C1=Cc1ccccc1O
[14]
  IC50: 81.3 µM (active)
[1]
  IC50: 34.6 µM (active)

## Cc1ccc(S(=O)(=O)N2C[C@H]3[C@H]4C(=O)N(c5ccccc5)C(=O)[C@H]4CC(=O)[C@H]3[C@@H]2c2cccc3ccccc23)cc1
[15]
  IC50: 21.6 µM (inactive)
[2]
  IC50: > 100 µM (inactive)
[16]
  IC50: 15.6 µM (active)

## COc1cccc(/C=N/n2c(=S)n(C)c3cc(C)c(C)cc32)c1OC
[5]
  AC50: inconclusive

## COc1cc2c(c(OC)c1OC)-c1ccc(=O)c(O)cc1C(NC(C)=O)CC2 (stereo not given)
[17]
  EC50: 0.126 µM (inconclusive)

Source: ChEMBL document CHEMBL1201862, “PubChem BioAssay data set” (2004)
